As a reminder, the Vd/F is the volume of distribution divided by bioavailability. As a reminder, the half-life is the time in which the quantity being followed falls by half. A high value points to slow loss. Broadly, the Tmax is the time from dosing to the highest level. By fraction unbound is commonly meant the share of the substance not bound to proteins or other matrix. A high value points to much free substance. What is called IC50 is the concentration at which inhibition is half-maximal.

Data set [1] can be described thus: clinical. The conditions noted are these: human, in vivo. How it is done:
This was a phase 1, open‐label study of a single dose of oral soticlestat 300 mg with three treatment arms (NCT05098054)[25]: moderate hepatic impairment (Child‐Pugh B; score ≥7 and ≤9; anticipated enrollment n = 8); mild hepatic impairment (Child‐Pugh A; score ≥5 and ≤6; n = 8); and normal hepatic function (n = 12–24). Screening occurred at an outpatient visit up to 28 days before dosing. Participants were admitted to the clinic the day before dosing and remained until day 7. Follow‐up phone contact occurred 14 ± 2 days after dosing.
The moderate hepatic impairment arm was conducted first, followed by the matched normal hepatic function arm. After enrollment of the mild hepatic impairment arm, up to 12 additional participants could be enrolled for the matched normal hepatic function group to ensure a minimum of 12 participants with normal hepatic function and matching the mean of the mild hepatic impairment arm by age, sex, and BMI. Soticlestat was taken as three 100 mg immediate‐release tablets on day 1 with approximately 240 mL water under fasting conditions (≥10 h before dosing and 4 h post‐dose).
(§1) Medical history and demographic data were recorded at screening. Twelve‐lead ECG, pulse rate, and BP were taken 2, 24, and 144 h after dosing or at early termination, and respiratory rate and temperature were taken 24 and 144 h after dosing or at early termination. Hematology, coagulation, serum chemistry, and urine analysis were conducted 48 and 144 h after dosing or at early termination. Blood samples for pharmacokinetic assessments of soticlestat and its metabolites M‐I and M3 were taken predose and 0.133, 0.25, 0.5, 0.75, 1, 1.5, 2, 4, 6, 8, 10, 14, 24, 36, 48, 72, 96, 120, and 144 h after dose administration or at early termination. Blood samples for plasma protein binding were taken predose and 0.5 and 10 h after dose administration. TEAE monitoring occurred throughout the study and at follow‐up.
The study's primary endpoints were the following pharmacokinetic parameters for soticlestat: C max; area under the total plasma concentration‐time curve from time 0 to infinity (AUC∞); and AUC from time 0 to time of the last quantifiable total plasma concentration (AUClast). The incidences of TEAEs and clinically significant abnormal values for laboratory evaluations, vital signs, ECG parameters, and Columbia‐Suicide Severity Rating Scale were secondary objectives. Exploratory endpoints were plasma pharmacokinetic parameters of soticlestat metabolites M‐I and M3 (C max, AUC∞, AUClast, metabolite‐to‐parent ratio [MPR] C max, MPR AUClast, and MPR AUC∞); additional plasma pharmacokinetic parameters of soticlestat and the metabolites M‐I and M3 (time of first occurrence of C max [t max] and terminal disposition phase half‐life [t ½z]); additional plasma pharmacokinetic parameters of soticlestat (apparent clearance after extravascular administration, calculated using the observed value of the last quantifiable total plasma concentration [CL/F]; apparent volume of distribution during the terminal disposition phase after extravascular administration, calculated using the observed value of the last quantifiable total plasma concentration [Vz/F]); and plasma protein binding of soticlestat: fraction of unbound soticlestat.
Total soticlestat, M‐I, and M3 concentrations and unbound soticlestat concentrations were determined using liquid chromatography–tandem mass spectrometry by CMIC, Inc. (Hoffman Estates, IL, USA). Unbound plasma soticlestat concentrations were measured using ultrafiltration (by CMIC, Inc.). Pharmacokinetic parameters were calculated using Phoenix® WinNonlin® version 8.3.4.
Descriptive statistics were derived for the concentration data: number of observations (n), arithmetic mean (mean), standard deviation (SD), arithmetic percent coefficient of variation (CV%), standard error of the mean, minimum, median, and maximum. […]

Data set [2] in a line: clinical. The format is in vitro ADME. The conditions noted are these: human, plasma, Plasma protein binding, mean. How it is done: Medical history and demographic data were recorded at screening. Twelve‐lead ECG, pulse rate, and BP were taken 2, 24, and 144 h after dosing or at early termination, and respiratory rate and temperature were taken 24 and 144 h after dosing or at early termination. Hematology, coagulation, serum chemistry, and urine analysis were conducted 48 and 144 h after dosing or at early termination. […] Blood samples for plasma protein binding were taken predose and 0.5 and 10 h after dose administration. TEAE monitoring occurred throughout the study and at follow‐up. The study's primary endpoints were the following pharmacokinetic parameters for soticlestat: C max; area under the total plasma concentration‐time curve from time 0 to infinity (AUC∞); and AUC from time 0 to time of the last quantifiable total plasma concentration (AUClast). The incidences of TEAEs and clinically significant abnormal values for laboratory evaluations, vital signs, ECG parameters, and Columbia‐Suicide Severity Rating Scale were secondary objectives. […] Total soticlestat, M‐I, and M3 concentrations and unbound soticlestat concentrations were determined using liquid chromatography–tandem mass spectrometry by CMIC, Inc. (Hoffman Estates, IL, USA). Unbound plasma soticlestat concentrations were measured using ultrafiltration (by CMIC, Inc.). Pharmacokinetic parameters were calculated using Phoenix® WinNonlin® version 8.3.4.

The nature of data set [3]: Safety: treatment-emergent adverse events after single oral soticlestat 300 mg. It counts as in vivo, human. As for the experimental part: as §1
The study's primary endpoints were the following pharmacokinetic parameters for soticlestat: C max; area under the total plasma concentration‐time curve from time 0 to infinity (AUC∞); and AUC from time 0 to time of the last quantifiable total plasma concentration (AUClast). The incidences of TEAEs and clinically significant abnormal values for laboratory evaluations, vital signs, ECG parameters, and Columbia‐Suicide Severity Rating Scale were secondary objectives. […]

Another data set relates to plasma protein. Also noted: method as in PMID 37771051. The conditions noted are these: human, cited from earlier work.
On the set-up of data set [4]: method as in PMID 33837574. The conditions noted are these: healthy volunteers, doses 15 to 1350 mg; cited from earlier work.
In data set [5] the target is cholesterol 24‐hydroxylase (CH24H). The conditions noted are these: no method or reference given; read-out: CH24H inhibition IC50; cited from earlier work.
For data set [6] the following is noted: cited from earlier work.
Where [7] appears, read: 300 mg dose of [14C]soticlestat.

SMILES strings stand for the structures. Read-outs that look alike come from different tables or passages of the source. Bounds are passed on as bounds.

On to `O=C(c1cccnc1-c1ccncc1)N1CCC(O)(Cc2ccccc2)CC1` [soticlestat], for which, in “clinical [1]”, the “Increase in total plasma exposure vs healthy matched participants (preliminary analysis)” value is “approximately 3 fold”, the “Total plasma AUClast higher vs healthy participants (preliminary analysis)” value is on record as “approximately 3 fold” and the “Total plasma AUC∞ higher vs healthy participants (preliminary analysis)” value is given as “approximately 3 fold”. In “clinical [1]” (po, 300 mg, Mean ± SD Vz/F, total plasma), this compound showed a Vd/F of 890 ± 1900 L. In “clinical [1]” (po, 300 mg, Mean ± SD t½z, total plasma), this compound gave a half-life of 219 ± 58.5 min. The Tmax in “clinical [1]” (po, 300 mg, Median (range) tmax, total plasma) came to 30 min. Also, the fraction unbound in “clinical [2]” was 0.175. Also, the “TEAEs based on serum chemistry, hematology, coagulation, urinalysis, vital signs, ECG, or Columbia-Suicide Severity Rating Scale” value in data set [3] (all study arms) is “no TEAEs”. Further, the “Number of TEAEs considered study drug related” value in data set [3] (in vivo) is listed as “two”. Also, the “In vitro plasma protein binding” value in the data set on plasma protein (0.1 μg/mL) is given as 94.0%. In addition, the “In vitro plasma protein binding” value with plasma protein (1 μg/mL) was 93.4%. Moreover, in the data set on plasma protein (10 μg/mL), the “In vitro plasma protein binding” value is recorded as 70.6%. For the same compound, the “Main binding protein in plasma” value in the data set with plasma protein was “mainly bound to human α‐1‐acid glycoprotein”. For the same compound, in data set [4], the “Mean plasma maximum concentration (Cmax)” value was 43.5 to 7950 ng/mL and the Terminal elimination half-life was 49.2 to 430 min. For the same compound, in data set [5], the IC50 was 4.5 nM. Besides, in data set [6] (setting [7]), the “Administered dose recovered in urine as this substance” value is 0.1%, the “Recovery of total radioactivity in feces” value is listed as 2.7% and the “Recovery of total radioactivity in urine” value is reported as 94.8%. Moreover, in data set [6], the Excreted in urine is < 1%; the “Share of soticlestat metabolism accounted for by UGT1A9 and UGT2B4” value is “approximately 90%”. For the same compound, the Absolute bioavailability in data set [6] (healthy volunteers) is reported as 12.6%.

(Values after publication PMC11239955, “Phase 1 pharmacokinetic and safety study of soticlestat in participants with mild or moderate hepatic impairment or normal hepatic function” (Pharmacology Research & Perspectives, 2024).)
